SMILES strings stand for the structures.

The values that follow come from paper PMC8449129, “Single tracer-based protocol for broad-spectrum kinase profiling in live cells with NanoBRET” (STAR Protocols, 2021).

What all share (assay): cell-based
Holding throughout (set-up): NanoBRET live-cell target engagement; % occupancy from displacement of tracer K10 on NanoLuc-kinase fusions, mean n=3
Common to all, as to settings: HEK293, read-out: % inhibition

The target of one experiment is CDKL3 (Homo sapiens, UniProt Q8IVW4). An outline of the steps: (§1)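 Live-cell NanoBRET target engagement: cells expressing kinase–NanoLuc fusion with tracer treated with compound 2 h at 37 °C, 5% CO2. BRET read from donor (450 nm) and acceptor (610/630 nm) emission with 20 μM extracellular NanoLuc inhibitor; % occupancy calculated relative to tracer+DMSO and zero-BRET controls.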
Sequence of CDKL3 (Q8IVW4 whole entry, the tested form may be a part): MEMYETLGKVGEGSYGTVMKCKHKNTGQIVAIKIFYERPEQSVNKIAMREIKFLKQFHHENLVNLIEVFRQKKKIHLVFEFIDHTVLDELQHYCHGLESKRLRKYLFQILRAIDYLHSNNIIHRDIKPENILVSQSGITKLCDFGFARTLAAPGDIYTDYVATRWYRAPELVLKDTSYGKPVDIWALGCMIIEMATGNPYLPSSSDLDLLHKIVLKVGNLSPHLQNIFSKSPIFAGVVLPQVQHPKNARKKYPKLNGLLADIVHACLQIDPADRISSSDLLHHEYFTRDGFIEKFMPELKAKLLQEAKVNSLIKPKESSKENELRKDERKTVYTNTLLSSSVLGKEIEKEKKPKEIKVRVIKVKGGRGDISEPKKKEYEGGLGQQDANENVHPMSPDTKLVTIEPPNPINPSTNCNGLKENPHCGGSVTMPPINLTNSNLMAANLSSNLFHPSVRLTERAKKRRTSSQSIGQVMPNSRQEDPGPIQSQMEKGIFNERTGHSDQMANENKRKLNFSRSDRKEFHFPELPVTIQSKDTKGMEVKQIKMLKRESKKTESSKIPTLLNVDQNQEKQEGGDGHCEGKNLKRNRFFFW

In a further experiment the target is SNRK (Homo sapiens, UniProt Q9NRH2). An outline of the steps: as §1
Sequence of SNRK (Q9NRH2 whole entry): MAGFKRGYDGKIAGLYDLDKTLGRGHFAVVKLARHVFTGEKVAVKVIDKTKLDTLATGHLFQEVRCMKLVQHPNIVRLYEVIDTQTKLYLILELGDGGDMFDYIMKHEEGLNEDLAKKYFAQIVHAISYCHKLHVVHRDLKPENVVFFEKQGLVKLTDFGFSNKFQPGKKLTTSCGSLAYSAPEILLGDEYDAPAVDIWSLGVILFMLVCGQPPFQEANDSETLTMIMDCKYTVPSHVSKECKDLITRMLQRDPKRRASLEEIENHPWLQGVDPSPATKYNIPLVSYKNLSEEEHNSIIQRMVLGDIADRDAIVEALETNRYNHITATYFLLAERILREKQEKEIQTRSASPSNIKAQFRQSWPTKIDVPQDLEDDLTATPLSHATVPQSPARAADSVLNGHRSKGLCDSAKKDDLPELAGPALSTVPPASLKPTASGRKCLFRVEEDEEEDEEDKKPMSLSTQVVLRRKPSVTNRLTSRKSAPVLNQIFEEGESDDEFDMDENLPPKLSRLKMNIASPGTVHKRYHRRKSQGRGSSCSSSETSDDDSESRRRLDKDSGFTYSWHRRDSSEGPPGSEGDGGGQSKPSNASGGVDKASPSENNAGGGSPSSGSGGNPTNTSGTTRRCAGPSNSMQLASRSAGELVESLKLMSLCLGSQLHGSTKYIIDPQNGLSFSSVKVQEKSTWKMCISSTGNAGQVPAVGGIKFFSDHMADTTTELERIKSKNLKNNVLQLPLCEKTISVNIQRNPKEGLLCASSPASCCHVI
A further experiment has as its target LIMK2 (Homo sapiens, UniProt P53671). An outline of the steps: as §1
The next experiment concerns the target HIPK4 (Homo sapiens, UniProt Q8NE63). An outline of the steps:
as §1

For another experiment, the target named is ERN2 (Homo sapiens, UniProt Q76MJ5). An outline of the steps: as §1
In another experiment the target is RIPK2 (Homo sapiens, UniProt O43353). An outline of the steps:
as §1

The target of another experiment is MELK (Homo sapiens, UniProt Q14680). An outline of the steps: as §1
For the next experiment, the target named is STK32B (Homo sapiens, UniProt Q9NY57). An outline of the steps:
as §1

Another experiment deals with MKNK2 (Homo sapiens, UniProt Q9HBH9). An outline of the steps:
as §1

The next experiment concerns the target TNK1 (Homo sapiens, UniProt Q13470). The gist of the method:
as §1

The target in another experiment is CAMK1 (Homo sapiens, UniProt Q14012). The gist of the method: as §1
Sequence of CAMK1 (Q14012 whole entry): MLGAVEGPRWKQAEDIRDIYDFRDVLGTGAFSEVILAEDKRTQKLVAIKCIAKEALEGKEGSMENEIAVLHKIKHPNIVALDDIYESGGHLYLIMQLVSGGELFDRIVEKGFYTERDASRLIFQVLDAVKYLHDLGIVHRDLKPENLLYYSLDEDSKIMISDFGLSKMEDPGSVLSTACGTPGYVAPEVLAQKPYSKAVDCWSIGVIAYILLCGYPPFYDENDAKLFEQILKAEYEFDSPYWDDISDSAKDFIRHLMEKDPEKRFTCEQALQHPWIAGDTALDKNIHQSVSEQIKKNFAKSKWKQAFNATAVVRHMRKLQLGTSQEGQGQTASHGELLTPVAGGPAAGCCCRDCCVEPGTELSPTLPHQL
For another experiment, the target named is ULK1 (Homo sapiens, UniProt O75385). The gist of the method: as §1
For a further experiment, the target named is PRKACB (Homo sapiens, UniProt P22694). An outline of the steps: as §1
The target of a further experiment is ITK (Homo sapiens, UniProt Q08881). An outline of the steps: as §1
In the next experiment the target is MAP3K2 (Homo sapiens, UniProt Q9Y2U5). An outline of the steps: as §1
Sequence of MAP3K2 (Q9Y2U5 whole entry): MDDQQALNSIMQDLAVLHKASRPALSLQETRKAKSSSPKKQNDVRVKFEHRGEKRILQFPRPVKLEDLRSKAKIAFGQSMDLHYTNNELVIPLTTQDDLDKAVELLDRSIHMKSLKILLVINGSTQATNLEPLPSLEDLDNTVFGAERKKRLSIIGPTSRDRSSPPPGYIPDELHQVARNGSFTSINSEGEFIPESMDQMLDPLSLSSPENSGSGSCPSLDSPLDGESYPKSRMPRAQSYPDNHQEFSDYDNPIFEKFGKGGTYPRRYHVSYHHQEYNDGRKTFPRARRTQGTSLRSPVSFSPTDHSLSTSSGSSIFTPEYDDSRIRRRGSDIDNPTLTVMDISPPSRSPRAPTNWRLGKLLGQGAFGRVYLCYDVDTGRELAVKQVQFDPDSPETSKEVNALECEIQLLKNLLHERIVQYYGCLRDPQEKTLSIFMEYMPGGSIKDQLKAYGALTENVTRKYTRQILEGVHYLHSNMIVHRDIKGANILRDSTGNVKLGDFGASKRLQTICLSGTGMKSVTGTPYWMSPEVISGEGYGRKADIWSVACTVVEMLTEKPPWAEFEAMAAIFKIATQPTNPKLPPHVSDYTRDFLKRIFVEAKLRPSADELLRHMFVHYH
The target of a further experiment is PAK6 (Homo sapiens, UniProt Q9NQU5). The gist of the method:
as §1

A further experiment concerns the target CDK1 (Homo sapiens, UniProt P06493). An outline of the steps:
as §1

The next experiment deals with DCLK3 (Homo sapiens, UniProt Q9C098). An outline of the steps:
as §1

Sequence of RIPK2 (O43353 whole entry): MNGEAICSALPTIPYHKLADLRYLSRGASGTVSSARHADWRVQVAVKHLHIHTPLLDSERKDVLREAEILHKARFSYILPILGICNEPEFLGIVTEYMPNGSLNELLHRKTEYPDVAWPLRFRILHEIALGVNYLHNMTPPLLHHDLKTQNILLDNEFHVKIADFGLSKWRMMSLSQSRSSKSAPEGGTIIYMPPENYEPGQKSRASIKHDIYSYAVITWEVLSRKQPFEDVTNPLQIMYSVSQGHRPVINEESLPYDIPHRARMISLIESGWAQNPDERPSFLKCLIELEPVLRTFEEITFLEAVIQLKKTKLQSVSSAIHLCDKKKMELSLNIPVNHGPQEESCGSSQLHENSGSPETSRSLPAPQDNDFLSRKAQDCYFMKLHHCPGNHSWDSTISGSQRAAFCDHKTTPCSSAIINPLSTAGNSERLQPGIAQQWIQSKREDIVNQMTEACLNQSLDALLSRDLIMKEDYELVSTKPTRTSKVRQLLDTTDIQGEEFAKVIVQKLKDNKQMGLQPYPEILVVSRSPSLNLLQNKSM
Sequence of MKNK2 (Q9HBH9 whole entry): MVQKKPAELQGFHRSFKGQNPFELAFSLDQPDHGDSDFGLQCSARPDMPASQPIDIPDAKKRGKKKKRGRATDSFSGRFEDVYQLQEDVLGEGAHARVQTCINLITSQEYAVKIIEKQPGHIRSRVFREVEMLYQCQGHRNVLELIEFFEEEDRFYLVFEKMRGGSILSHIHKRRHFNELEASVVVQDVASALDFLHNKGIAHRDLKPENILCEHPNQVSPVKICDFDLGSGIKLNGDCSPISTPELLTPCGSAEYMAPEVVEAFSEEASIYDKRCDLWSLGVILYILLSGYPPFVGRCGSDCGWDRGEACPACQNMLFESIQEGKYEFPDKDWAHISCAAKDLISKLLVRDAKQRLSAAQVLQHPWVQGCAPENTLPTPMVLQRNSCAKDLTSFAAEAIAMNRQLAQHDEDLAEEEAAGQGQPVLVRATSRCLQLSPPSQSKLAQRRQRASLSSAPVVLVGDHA
Sequence of CDK1 (P06493 whole entry): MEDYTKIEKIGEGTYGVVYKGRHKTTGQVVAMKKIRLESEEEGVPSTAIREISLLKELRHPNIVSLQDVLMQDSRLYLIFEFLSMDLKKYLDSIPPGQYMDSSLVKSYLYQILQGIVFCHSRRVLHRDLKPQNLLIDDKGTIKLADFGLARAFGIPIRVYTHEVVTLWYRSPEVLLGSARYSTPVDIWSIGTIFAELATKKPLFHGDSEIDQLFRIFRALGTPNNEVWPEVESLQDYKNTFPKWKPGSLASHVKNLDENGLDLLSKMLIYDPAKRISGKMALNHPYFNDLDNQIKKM
Sequence of HIPK4 (Q8NE63 whole entry): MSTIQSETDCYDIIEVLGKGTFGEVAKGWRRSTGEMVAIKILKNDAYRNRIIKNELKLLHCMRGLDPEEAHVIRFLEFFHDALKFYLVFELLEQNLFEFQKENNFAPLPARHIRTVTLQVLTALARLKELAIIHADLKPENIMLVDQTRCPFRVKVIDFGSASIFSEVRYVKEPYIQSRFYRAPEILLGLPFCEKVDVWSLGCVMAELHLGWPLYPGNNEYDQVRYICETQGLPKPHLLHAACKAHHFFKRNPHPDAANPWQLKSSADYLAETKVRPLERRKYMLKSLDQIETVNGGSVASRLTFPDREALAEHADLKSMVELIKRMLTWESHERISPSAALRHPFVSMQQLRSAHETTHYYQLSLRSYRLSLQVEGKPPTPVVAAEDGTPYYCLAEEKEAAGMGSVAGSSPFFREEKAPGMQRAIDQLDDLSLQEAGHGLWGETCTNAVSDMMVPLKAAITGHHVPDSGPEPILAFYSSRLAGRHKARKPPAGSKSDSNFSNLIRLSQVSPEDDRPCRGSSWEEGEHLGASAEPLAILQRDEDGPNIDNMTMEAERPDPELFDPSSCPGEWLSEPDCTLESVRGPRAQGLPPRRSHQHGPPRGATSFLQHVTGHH
Sequence of DCLK3 (Q9C098 whole entry): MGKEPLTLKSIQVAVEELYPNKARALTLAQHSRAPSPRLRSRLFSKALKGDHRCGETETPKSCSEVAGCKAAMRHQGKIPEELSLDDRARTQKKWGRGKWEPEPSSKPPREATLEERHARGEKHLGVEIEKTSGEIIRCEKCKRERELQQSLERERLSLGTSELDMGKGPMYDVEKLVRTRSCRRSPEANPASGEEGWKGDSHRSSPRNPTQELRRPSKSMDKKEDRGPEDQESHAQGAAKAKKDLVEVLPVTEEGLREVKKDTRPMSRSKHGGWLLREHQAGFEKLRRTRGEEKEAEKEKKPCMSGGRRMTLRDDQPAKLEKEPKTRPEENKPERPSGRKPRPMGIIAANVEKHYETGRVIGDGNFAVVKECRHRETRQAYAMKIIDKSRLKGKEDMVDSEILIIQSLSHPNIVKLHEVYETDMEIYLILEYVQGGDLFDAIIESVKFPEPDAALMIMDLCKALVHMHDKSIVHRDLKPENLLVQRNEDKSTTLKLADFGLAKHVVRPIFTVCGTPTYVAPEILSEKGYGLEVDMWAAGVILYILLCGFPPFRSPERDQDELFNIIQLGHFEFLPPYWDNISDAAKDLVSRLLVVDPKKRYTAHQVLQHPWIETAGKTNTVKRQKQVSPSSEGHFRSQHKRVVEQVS

Turning to `C[C@@H](Oc1cc(-c2cnn(C3CCNCC3)c2)cnc1N)c1c(Cl)ccc(F)c1Cl` [crizotinib], the inhibition at 1 µM at CDKL3 was 8%; on SNRK, -4%; at LIMK2, 32%; at HIPK4, -9%; at ERN2, -9%; at RIPK2, 43%. For the same compound, the inhibition at 1 µM on MELK was -2%; on STK32B it was -1%; on MKNK2, 1%; on TNK1, -6%; at CAMK1, 7%; on ULK1 it was -1%. Also, the inhibition at 1 µM at PRKACB was 5%; at ITK, -1%; at MAP3K2, 6%; on PAK6 it was -7%; on CDK1 it was 7%; on DCLK3 it was 0%.
